Experimental data taken from US20090317476A1, “COMBINATION OF DEHYDROEPIANDROSTERONE OR DEHYDROEPIANDROSTERONE-SULFATE WITH A LEUKOTRIENE RECEPTOR ANTAGONIST FOR TREATMENT OF ASTHMA OR CHRONIC OBSTRUCTIVE PULMONARY DISEASE” (priority 2003, published 2009).
Several values for one entry are separate records, joined by “and”; a condition that tells them apart may be missing. Equal entries are not always repeated.

What was measured:
[1] = tested on: Intracellular adenosine; test: In vivo effect on adenosine levels in rat tissues
Procedure: Folinic acid (50 mg/kg) was administered intraperitoneally once daily for fourteen days. […] Hearts were removed from animals and flash frozen in liquid nitrogen with 10 s of death. Liver and lungs were removed en bloc and flash frozen with 30 s of death. Brain tissue was subsequently dissected.

[2] = Particle size by Malvern Mastersizer X / light microscope after jet milling or spray drying; assay type: physicochemical
Procedure: Approximately 1 g sample was passed through the jet mill, once, and approximately 2 g sample were passed through the jet mill twice. […] The resulting solution was sonicated for 3 minutes and appeared fully dispersed. The dispersed solutions were tested on a Malvern Mastersizer X with a small volume sampler (SVS) attachment. One sample of dispersed material was tested 5 times. The median particle size or D (v, 0.5) of unmilled material was 52.56 μm and the % RSD (relative standard deviation) was 7.61 for the 5 values. The D (v, 0.5) for a single pass through the jet mill was 3.90 μm and the % RSD was 1.27, and the D (v, 0.5) from a double pass through the jet mill 3.25 μm and the % RSD was 3.10.
The solution was spray-dried with a B-191 Mini Spray-Drier (Buchi, Flawil, Switzerland) with an inlet temperature of 55° C., outlet temperature of 40° C., at 100% aspirator, at 10% pump, nitrogen flow at 40 mbar and spray flow at 600 units. The spray-dried product was suspended in hexane and Span85 surfactant added to reduce agglomeration. The dispersions were sonicated with cooling for 3-5 minutes for complete dispersion and the dispersed solutions tested on a Malvern Mastersizer X with a Small Volume Sampler (SVS) attachment. […] Visual examination by light microscope of the dispersions of each batch confirmed that spray drying produced small respirable size particles. The mean particle size was 2.4 μm and 2.0 μm for each batch, respectively.

[3] = tested on: HT-29 SF cells; test: DHEA effect on cell cycle, flow cytometry; assay type: cell-based, human; conditions: 25, 50, 200 μM; 24-72 hours
Procedure: Cells were plated at 10^5/60-mm dish in duplicate. […] Cultures were trypsinized following 0, 24, 48, or 74 hours and fixed and stained using a modification of a procedure of Bauer et al., Cancer Res. 46, 3173-3178 (1986). Briefly, cells were collected by centrifugation and resuspended in cold phosphate-buffered saline. Cells were fixed in 70% ethanol, washed, and resuspended in phosphate-buffered saline.
After 24, 48, and 72 hours, cells were harvested, fixed in ethanol, and stained with propidium iodide, and the DNA content/cell was determined by flow cytometric analysis. The percentage of cells in G1, S, and G2M phases was calculated using the Cellfit cell cycle analysis program. S phase is marked by a quadrangle for clarity. Representative histograms from duplicate determinations are shown. The experiment was repeated three times.

[4] = Solubility of DHEA-S as a function of NaCl and temperature; assay type: physicochemical; conditions: 20 mM Na^+; Ksp 1316 mM^2; 15° C.
From the text: Inhalation of pure water can produce a cough stimulus. […] The temperature effect is weaker at high NaCl concentrations.

[5] = Short-term solution stability of DHEA-S formulation; assay type: physicochemical; conditions: for Appearance on storage: 10 mg/mL in 0.12% NaCl
Procedure: Aliquots of this solution are filled into clear glass vials and stored at RT (24-26° C.) and at 40° C. The samples are checked daily for DHEA-S content, DHEA content, and appearance. For each time point, duplicate samples are withdrawn and diluted from each vial. […] The study is stopped on day three. […] The solution should easily be stable for the day of reconstitution in a clinical trial. The following section describes the aerosol properties of this formulation.

[6] = tested on: rat peritoneal mast cells; test: Mast cell degranulation (histamine secretion) after compound 48/80; assay type: cell-based
From the text: Leukotrienes are synthesized within—although not exclusively by the mast cell (Gilchrist, M., McCauley, S.D., & Befus, A. D. (2004) Expression, localization, and regulation of NOS in human mast cell lines: effects on leukotriene production. Blood 104, 462-469.). We determined whether DHEA-sulfate would reduce mast cell degranulation after stimulation with compound 48/80 in rat peritoneal mast cells. Mast cell degranulation was quantified by measurement of histamine, another substance contained within the secretory granules of mast cells. The simple measurement of released histamine is used as a convenient surrogate marker for the release of leukotrienes.
Freshly isolated rat peritoneal mast cells (2×10^5 cells) were pre-incubated for 5 min at 37° C. in a Balanced Salt Solution containing 150 mM NaCl (pH 7.4), 2.7 mM KCl, 0.9 mM CaCl2, 4 mM Na2HPO4, 2.7 mM KH2PO4, 1.75 mg/ml BSA and 0.1 μg/ml compound 48/80. Thereafter, DHEAS or water (control) are added and the mixture is incubated for 2 min at 37° C.
Following incubation, the mixture is cooled to 4° C. then centrifuged at 4500 rpm for 5 min. […]
The amount of secreted histamine is quantified by measuring the fluorescence intensity at λex=360 nm and λem=450 nm using a spectrofluorimeter (GeminiXS, Molecular Devices). The results are expressed as a percent inhibition of control histamine secretion.

[7] = Physicochemical testing of DHEA-S dihydrate before and after micronization; conditions: for Water (% w/w): Karl Fischer
Procedure: Surface area is determined using five point BET analyses are performed with nitrogen as the adsorbing gas (P/Po=0.05 to 0.30) using a Micromeritics TriStar surface area analyzer. Particle size distributions are measured by laser diffraction using a Micromeritics Saturn Digisizer where the particles are suspended in mineral oil with sodium dioctyl sodium sulfosuccinate as a dispersing agent. Drug substance water content is measured by Karl Fischer titration (Schott Titroline KF). Pure water is used as the standard and all relative standard deviations for triplicates are less than 1%. Powder is added directly to the titration media.

[8] = Solid-state stability neat and with lactose at 50° C. (DHEA formed, HPLC); assay type: physicochemical
From the text: These conditions were used to stress the formulation in order to predict its long-term stability results. […] The primary degradant is DHEA. […] The materials on accelerated storage become more cohesive with time as evidenced by clumping during sample weighing for chemical analysis. […] This is a considerable disadvantage since lactose is the most commonly used inhalation excipient for dry powder formulations. Continuing with the virtually anhydrous form would mean limiting formulations to neat powder or undertaking more comprehensive safety studies to use a novel excipient.

[9] = cited from earlier work

SMILES: Nc1nc(=O)c2c([nH]1)NCC(CNc1ccc(C(=O)N[C@@H](CCC(=O)O)C(=O)O)cc1)N2C=O (mixture of isomers) [Folinic Acid, Folinic acid]
- Effect on adenosine levels, administered alone ([1]; all organs studied): increase in adenosine levels
- Effect of coadministration of folinic acid on steroid-mediated adenosine depletion ([1]; with DHEA or methyltestosterone): completely abrogated steroid-mediated adenosine depletion

SMILES: C[C@]12CC[C@H](OS(=O)(=O)[O-])CC1=CC[C@@H]1[C@@H]2CC[C@]2(C)C(=O)CC[C@@H]12.[Na+] [Anhydrous DHEA-S]
- D (v, 0.5) ([2]; double pass through the jet mill): 3.25 μm
- D (v, 0.5) ([2]; single pass through the jet mill): 3.90 μm
- median particle size or D (v, 0.5) ([2]; unmilled material): 52.56 μm

SMILES: C[C@]12CC[C@H](O)CC1=CC[C@@H]1[C@@H]2CC[C@]2(C)C(=O)CC[C@@H]12 [DHEA, 3β-hydroxyandrost-5-en-17-one]
- Effect on cell cycle distribution [3]: G1 block

SMILES: C[C@]12CC[C@H](OS(=O)(=O)[O-])CC1=CC[C@@H]1[C@@H]2CC[C@]2(C)C(=O)CC[C@@H]12.[Na+] [DHEA-S, sodium dehydroepiandrostenone sulfate]
- calculated DHEA-S solution concentration [4]: 10.7 mg/mL
- calculated DHEA-S^− solution concentration [4]: 27.5 mM
- Stability of nebulizer formulation ([5]; 7.5 mg/mL of DHEA-S in 0.12% NaCl, RT): stable for at least one day at RT
- Appearance on storage ([5]; 40° C.): became cloudy after two days of storage
- Appearance on storage ([5]; RT (24-26° C.)): slight precipitate is observed on the third day
- maximal effect, percent inhibition of control histamine secretion ([6]; at 0.1 uM, compound 48/80 stimulated): 69.9%
- solubility under the assay conditions ([6]; at 10^-4 M): highly limited

SMILES: C[C@]12CC[C@H](OS(=O)(=O)[O-])CC1=CC[C@@H]1[C@@H]2CC[C@]2(C)C(=O)CC[C@@H]12.O.O.[Na+] [DHEA-S•dihydrate]
- Particle size (D50%) ([7]; Bulk): 31 microns
- Water (% w/w) ([7]; Bulk): 8.5 % w/w
- Particle size (D50%) ([7]; Micronized): 3.7 microns
- Water (% w/w) ([7]; Micronized): 8.4 % w/w
- Surface area (m^2/g) ([7]; Micronized, five point BET): 4.9 m^2/g
- Percent DHEA formed ([8]; DHEA-S dihydrate, 50° C., 1 week): 0.216%
- Percent DHEA formed ([8]; DHEA-S dihydrate, 50° C., 3 weeks): 0.317%
- Percent DHEA formed ([8]; DHEA-S dihydrate, 50° C., 4 weeks): 0.374%
- water content, starting value ([8]; before storage): 8.8%
- Percent DHEA formed ([8]; dihydrate, Control, neat, sealed, 25° C., 4 weeks): 0.218%
- Percent DHEA formed ([8]; dihydrate, Control, neat, sealed, 25° C., Time (Weeks)): 0.213%
- water content after accelerated storage ([8]; one week at 50° C.): 8.66%

SMILES: C[C@]12CC[C@H](OS(=O)(=O)[O-])CC1=CC[C@@H]1[C@@H]2CC[C@]2(C)C(=O)CC[C@@H]12.[Na+] [Spray-Dried Drug Product]
- mean particle sizes ([2]; two batches of spray dried material, Malvern Mastersizer X, listed as spray-dried product): 5.07±0.70 μm and 6.66±0.91 μm

SMILES: COc1cc(C(=O)NS(=O)(=O)c2ccccc2C)ccc1Cc1cn(C)c2ccc(NC(=O)OC3CCCC3)cc12 [Zafirlukast, 4(5-cyclopentyloxy-carbonylamino-1-methyl-indol-3ylmethyl)-3methoxy-N-o-tolylsulfonylbenzamide]
- Solubility in acetone [9]: freely soluble
- Solubility in dimethylsulfoxide [9]: freely soluble
- Solubility in methanol [9]: slightly soluble
- Solubility in tetrahydrofuran [9]: freely soluble
- Solubility in water [9]: practically insoluble
